# Results reported in patent publication US10150760B2, “Compounds for use in preparing heterocyclic triazole agonists of the APJ receptor” (AMGEN INC., priority 2016, dated 2018).
# Biological target: human APJ receptor (Homo sapiens (Human), UniProt P35414)
# Test: [35S]GTPγS binding assay on membranes from CHO cells stably expressing human APJ receptor
# Assay type: biochemical
# Settings: read-out: Activity hAPJ SPA EC50 IP
# How it was run: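 Agonist-driven [35S]GTPγS (0.2 nM) binding was measured over 90 min at room temperature on human APJ-expressing CHO membranes with bead capture, in buffer containing 3 μM GDP, 200 mM NaCl and 5 mM MgCl2 (pH 7.5). Excess unlabelled GTPγS (100 μM) gave nonspecific signal; EC50 from non-linear fits.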
# Chain of human APJ receptor (P35414 whole entry): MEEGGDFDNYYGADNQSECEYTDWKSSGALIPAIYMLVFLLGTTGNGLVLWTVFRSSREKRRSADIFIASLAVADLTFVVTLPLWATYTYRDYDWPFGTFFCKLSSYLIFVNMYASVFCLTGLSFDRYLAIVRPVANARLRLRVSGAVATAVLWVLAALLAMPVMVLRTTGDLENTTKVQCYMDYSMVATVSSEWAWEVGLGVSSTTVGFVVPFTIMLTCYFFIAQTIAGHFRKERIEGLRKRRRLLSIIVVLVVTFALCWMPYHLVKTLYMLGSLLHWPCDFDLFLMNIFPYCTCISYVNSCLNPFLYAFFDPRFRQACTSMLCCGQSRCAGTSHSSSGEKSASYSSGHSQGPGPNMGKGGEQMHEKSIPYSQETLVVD
row,Molecule,EC50 [nM]
1,"(2S,3R)-3-(5-chloro-2-pylimidinyl)-N-(4-(1,3-dimethoxy-2-propanyl)-5-((2R,5R)-5-methyltetrahydro-2-furanyl)-4H-1,2,4-triazol-3-yl)-2-butanesulfonamide or (2S,3R)-3-(5-chloro-2-pyrimidinyl)-N-(4-(1,3-dimethoxy-2-propanyl)-5-((2S,5S)-5-methyltetrahydro-2-furanyl)-4H-1,2,4-triazol-3-yl)-2-butanesulfonamide [Example 375.0]",92
2,"COc1cccc(OC)c1-n1c(NS(=O)(=O)[C@@H](C)[C@H](C)c2ncc(Cl)cn2)nnc1[C@H]1CCC(=O)N1C (single isomer, unassigned) [Example 419.0, (2S,3R)-3-(5-chloro-2-pyrimidinyl)-N-(4-(2,6-dimethoxyphenyl)-5-((2R)-1-methyl-5-oxo-2-pyrrolidinyl)-4H-1,2,4-triazol-3-yl)-2-butanesulfonamide or ((2S,3R)-3-(5-chloro-2-pyrimidinyl)-N-(4-(2,6-dimethoxyphenyl)-5-((2S)-1-methyl-5-oxo-2-pyrrolidinyl)-4H-1,2,4-triazol-3-yl)-2-butanesulfonamide]",3430
3,"CO[C@H](c1ncc(Cl)cn1)[C@H](C)S(=O)(=O)Nc1nnc([C@H]2CCCO2)n1C1(C)CC1 (single isomer, unassigned) [Example 110.0, (1R,2S)-1-(5-chloropyrimidin-2-yl)-1-methoxy-N-(4-(1-methylcyclopropyl)-5-((S)-tetrahydrofuran-2-yl)-4H-1,2,4-triazol-3-yl)propane-2-sulfonamide or (1R,2S)-1-(5-chloropyrimidin-2-yl)-1-methoxy-N-(4-(1-methylcyclopropyl)-5-((R)-tetrahydrofuran-2-yl)-4H-1,2,4-triazol-3-yl)propane-2-sulfonamide]",30
4,"(2S,3R)-N-(4-(2,6-difluorophenyl)-5-((3R)-tetrahydro-3-furanyl)-4H-1,2,4-triazol-3-yl)-3-(5-methyl-2-pyrimidinyl)-2-butanesulfonamide or (2S,3R)-N-(4-(2,6-difluorophenyl)-5-((3S)-tetrahydro-3-furanyl)-4H-1,2,4-triazol-3-yl)-3-(5-methyl-2-pyrimidinyl)-2-butanesulfonamide [Example 21.0]",110
5,"(2S,3R)-N-(4-(2,6-dimethoxyphenyl)-5-((S)-tetrahydrothiophen-2-yl)-4H-1,2,4-triazol-3-yl)-3-(5-methylpyrimidin-2-yl)butane-2-sulfonamide or (2S,3R)-N-(4-(2,6-dimethoxyphenyl)-5-((R)-tetrahydrothiophen-2-yl)-4H-1,2,4-triazol-3-yl)-3-(5-methylpyrimidin-2-yl)butane-2-sulfonamide [Example 224.0]",1.5
6,"COc1cccc(OC)c1-n1c(NS(=O)(=O)[C@@H](C)[C@H](C)c2ncc(C#N)cn2)nnc1[C@H]1CCOC1 (single isomer, unassigned) [Example 174.0, (2S,3R)-3-(5-cyano-2-pyrimidin-yl)-N-(4-(2,6-dimethoxyphenyl)-5-((3R)-tetrahydro-3-furanyl)-4H-1,2,4-triazol-3-yl)-2-butanesulfonamide or (2S,3R)-3-(5-cyano-2-pyrimidinyl)-N-(4-(2,6-dimethoxyphenyl)-5-((3S)-tetrahydro-3-furanyl)-4H-1,2,4-triazol-3-yl)-2-butanesulfonamide]",210
7,"COc1cccc(OC)c1-n1c(NS(=O)(=O)[C@@H](C)[C@H](OC)c2ncc(Cl)cn2)nnc1[C@H]1CCC(=O)N1 (single isomer, unassigned) [Example 398.0, (1R,2S)-1-(5-chloro-2-pyrimidinyl)-N-(4-(2,6-dimethoxyphenyl)-5-((2R)-5-oxo-2-pyrrolidinyl)-4H-1,2,4-triazol-3-yl)-1-methoxy-2-propanesulfonamide or (1R,2S)-1-(5-chloro-2-pyrimidinyl)-N-(4-(2,6-dimethoxyphenyl)-5-((2S)-5-oxo-2-pyrrolidinyl)-4H-1,2,4-triazol-3-yl)-1-methoxy-2-propanesulfonamide]",560
8,"(2S,3R)-N-(4-(1,3-dimethoxy-2-propanyl)-5-((2R,5R)-5-methyltetrahydro-2-furanyl)-4H-1,2,4-triazol-3-yl)-3-(5-methoxy-2-pyrazinyl)-2-butanesulfonamide or (2S,3R)-N-(4-(1,3-dimethoxy-2-propanyl)-5-((2S,5S)-5-methyltetrahydro-2-furanyl)-4H-1,2,4-triazol-3-yl)-3-(5-methoxy-2-pyrazinyl)-2-butanesulfonamide [Example 377.0]",24
9,"(1R,2S)-N-(5-((R)-1,4-dioxan-2-yl)-4-(1-(pyridin-3-yl)cyclopropyl)-4H-1,2,4-triazol-3-yl)-1-(5-chloropyrimidin-2-yl)-1-methoxypropane-2-sulfonamide or (1R,2S)-N-(5-((S)-1,4-dioxan-2-yl)-4-(1-(pyridin-3-yl)cyclopropyl)-4H-1,2,4-triazol-3-yl)-1-(5-chloropyrimidin-2-yl)-1-methoxypropane-2-sulfonamide [Example 295.0]",16
10,"COc1cccc(OC)c1-n1c(NS(=O)(=O)[C@@H](C)[C@H](C)c2ncc(C)cn2)nnc1[C@@H]1CCCN(C)C1 (single isomer, unassigned) [Example 269.0, (2S,3R)-N-(4-(2,6-dimethoxyphenyl)-5-((R)-1-methylpiperidin-3-yl)-4H-1,2,4-triazol-3-yl)-3-(5-methylpyrimidin-2-yl)butane-2-sulfonamide or (2S,3R)-N-(4-(2,6-dimethoxyphenyl)-5-((S)-1-methylpiperidin-3-yl)-4H-1,2,4-triazol-3-yl)-3-(5-methylpyrimidin-2-yl)butane-2-sulfonamide]",420
11,"COc1cccc(OC)c1-n1c(NS(=O)(=O)[C@@H](C)[C@H](C)c2ncc(Cl)cn2)nnc1[C@H]1CCCCO1 (single isomer, unassigned) [Example 87.0, (2S,3R)-3-(5-chloropyrimidin-2-yl)-N-(4-(2,6-dimethoxyphenyl)-5-((S)-tetrahydro-2H-pyran-2-yl)-4H-1,2,4-triazol-3-yl)butane-2-sulfonamide or (2S,3R)-3-(5-chloropyrimidin-2-yl)-N-(4-(2,6-dimethoxyphenyl)-5-((S)-tetrahydro-2H-pyran-2-yl)-4H-1,2,4-triazol-3-yl)butane-2-sulfonamide]",2.4
12,"(1S,2S)-N-(4-(1,3-dimethoxy-2-propanyl)-5-((2R,5R)-5-methyltetrahydro-2-furanyl)-4H-1,2,4-triazol-3-yl)-1-(5-methyl-2-pyridinyl)-1-(2-propanyloxy)-2-propanesulfonamide or (1S,2S)-N-(4-(1,3-dimethoxy-2-propanyl)-5-((2S,5S)-5-methyltetrahydro-2-furanyl)-4H-1,2,4-triazol-3-yl)-1-(5-methyl-2-pyridinyl)-1-(2-propanyloxy)-2-propanesulfonamide [Example 367.0]",12
13,"CO[C@H](c1ncc(Cl)cn1)[C@H](C)S(=O)(=O)Nc1nnc([C@H]2CCCOC2)n1C1(C)CC1 (single isomer, unassigned) [Example 126.0, (1R,2S)-1-(5-chloropyrimidin-2-yl)-1-methoxy-N-(4-(1-methylcyclopropyl)-5-((R)-tetrahydro-2H-pyran-3-yl)-4H-1,2,4-triazol-3-yl)propane-2-sulfonamide or (1R,2S)-1-(5-chloropyrimidin-2-yl)-1-methoxy-N-(4-(1-methylcyclopropyl)-5-((S)-tetrahydro-2H-pyran-3-yl)-4H-1,2,4-triazol-3-yl)propane-2-sulfonamide]",480
14,"COc1cccc(OC)c1-n1c(NS(=O)(=O)CCc2ccc(F)cc2C#N)nnc1[C@@H]1CCC(=O)N1 [Example 44.0, 2-(2-Cyano-4-fluorophenyl)-N-(4-(2,6-dimethoxyphenyl)-5-((2S)-5-oxo-2-pyrrolidinyl)-4H-1,2,4-triazol-3-yl)ethanesulfonamide]",430
15,"(1R,2S)-N-(4-([1,1′-bi(cyclopropyl)]-1-yl)-5-((2R)-1,4-dioxan-2-yl)-4H-1,2,4-triazol-3-yl)-1-methoxy-1-(5-methyl-2-pyrazinyl)-2-propanesulfonamide or (1R,2S)-N-(4-([1,1′-bi(cyclopropyl)]-1-yl)-5-((2S)-1,4-dioxan-2-yl)-4H-1,2,4-triazol-3-yl)-1-methoxy-1-(5-methyl-2-pyrazinyl)-2-propanesulfonamide [Example 328.0]",230
16,"COc1cccc(OC)c1-n1c(NS(=O)(=O)[C@@H](C)[C@H](C)c2cnc(C)cn2)nnc1[C@H]1CCCO1 (single isomer, unassigned) [Example 89.0, (2S,3R)-N-(4-(2,6-dimethoxyphenyl)-5-((S)-tetrahydrofuran-2-yl)-4H-1,2,4-triazol-3-yl)-3-(5-methylpyrazin-2-yl)butane-2-sulfonamide or (2S,3R)-N-(4-(2,6-dimethoxyphenyl)-5-((R)-tetrahydrofuran-2-yl)-4H-1,2,4-triazol-3-yl)-3-(5-methylpyrazin-2-yl)butane-2-sulfonamide]",23
17,"COc1cccc(OC)c1-n1c(NS(=O)(=O)[C@@H](C)[C@H](C)c2ncc(Cl)cn2)nnc1[C@H]1CCC(=O)N1 (single isomer, unassigned) [Example 344.0, (2S,3R)-3-(5-chloropyrimidin-2-yl)-N-(4-(2,6-dimethoxyphenyl)-5-((R)-5-oxopyrrolidin-2-yl)-4H-1,2,4-triazol-3-yl)butane-2-sulfonamide or (2S,3R)-3-(5-chloropyrimidin-2-yl)-N-(4-(2,6-dimethoxyphenyl)-5-((S)-5-oxopyrrolidin-2-yl)-4H-1,2,4-triazol-3-yl)butane-2-sulfonamide]",230
18,"(2S,3R)-N-(4-(2,6-dimethoxyphenyl)-5-((R)-1,1-dioxidotetahydrothiophen-3-yl)-4H-1,2,4-triazol-3-yl)-3-(5-methylpyrimidin-2-yl)butane-2-sulfonamide or (2S,3R)-N-(4-(2,6-dimethoxyphenyl)-5-((S)-1,1-dioxidotetrahydrothiophen-3-yl)-4H-1,2,4-triazol-3-yl)-3-(5-methylpyrimidin-2-yl)butane-2-sulfonamide [Example 184.0]",1380
